Literature values as cited in PMC2360332 (British Journal of Cancer, 2007).

Assays:
[1] = system: breast cancer; conditions: cited from earlier work
[2] = system: breast cancer growth; set-up: method as in Lippman and Bolan, 1975; conditions: ref Lippman and Bolan, 1975; cited from earlier work
[3] = system: human breast cancer xenografts; conditions: cited from earlier work
Text: A peptide (α-fetoprotein-derived peptide (AFPep), sequence cyclo(EKTOVNOGN), where O is hydroxyproline) derived from the active site of α-fetoprotein (AFP) has been under investigation as a potential agent for prevention or therapy of oestrogen receptor-positive (ER+) breast cancer ([Mesfin et al, 2000], [2001]; [Bennett et al, 2002], [2006]; [DeFreest et al, 2004]). […] In fact, in this study and ...

[4] = system: MNU-induced breast cancers in rats; conditions: ref Parikh et al, 2005; cited from earlier work
Text: (§1) A peptide (α-fetoprotein-derived peptide (AFPep), sequence cyclo(EKTOVNOGN), where O is hydroxyproline) derived from the active site of α-fetoprotein (AFP) has been under investigation as a potential agent for prevention or therapy of oestrogen receptor-positive (ER+) breast cancer ([Mesfin et al, 2000], [2001]; [Bennett et al, 2002], [2006]; [DeFreest et al, 2004]).

[5] = system: breast cancer that had become resistant to the cytostatic effects of tamoxifen; conditions: ref Bennett et al, 2002; cited from earlier work
Text: as §1

[6] = system: immature mouse uterus; conditions: earlier study; ref Bennett et al, 2002; cited from earlier work
Text: (§2) In fact, in this study and ...

[7] = system: ER; conditions: ref Parikh et al, 2005; Bennett et al, 2006; cited from earlier work
Text: as §2

| Molecule | Risk of primary breast cancers (in words) ([1]; high-risk patients, ref Fisher et al, 1998) | Breast cancer recurrences (in words) ([1]; ref Early Breast Cancer Trialists' Collaborative Group, 1992) | Breast cancer growth (in words) [2] | Oral activity (in words) ([3]; oral route, ref Bennett et al, 2006) | Growth of human breast cancer xenografts in mice (in words) ([3]; ref Mesfin et al, 2001) | Development of carcinogen-induced mammary cancers in rats (in words) [4] | Growth of tamoxifen-resistant breast cancer (in words) [5] | Tam-induced uterine hyperplasia (in words) [6] | ER antagonist / partial agonist (in words) [7] |
| --- | --- | --- | --- | --- | --- | --- | --- | --- | --- |
| CC/C(=C(\c1ccccc1)c1ccc(OCCN(C)C)cc1)c1ccccc1 [Tam, Tamoxifen, reference compound] | decrease the risk of primary breast cancers in high-risk patients | inhibit breast cancer recurrences | inhibit breast cancer growth |  |  |  |  |  |  |
| cyclo(EKTOVNOGN) (head to tail) [AFPep] |  |  |  | active by the oral route | inhibit the growth of human breast cancer xenografts in mice | prevent the development of carcinogen-induced mammary cancers in rats | inhibit the growth of breast cancer that had become resistant to the cytostatic effects of tamoxifen | interferes with the uterine hyperplasia induced by Tam | not an ER antagonist, nor an ER partial agonist |
